{
  "source": "patent US8936793B2",
  "about": "“Synthetic archaeal glycolipid adjuvants” (National Research Council of Canada, priority 2006, dated 2015)",
  "key": {"[1]": {"test_system": "antigen specific EG.7 targets", "experiment": "CTL activity in splenocytes of immunized mice, Cr51-assay", "format": "in vivo, C57BL/6 mice", "conditions": "15 μg OVA s.c. 0 and 3 weeks; spleens 7 weeks after first immunization", "experimental": "To determine adjuvant activity, various synthetic archaeosomes with OVA entrapped (OVA-archaeosomes) were used to immunize female C57BL/6 mice on days 0 and 21 (6-8 weeks old on first injection). Injections were subcutaneous at the tail base with 0.1 ml PBS containing 15 μg OVA entrapped in 0.2-0.63 mg lipids. Blood samples were collected from the tail vein for anti-OVA IgG/IgM antibody titration done by ELISA (13). In some cases faecal extracts were assayed for IgA (and IgG) to assess mucosal responses following systemic immunizations. Fresh faeces (about 30 mg dry weight) were collected from 4 mice/group, and extracted by adding 0.5 ml of phosphate buffered saline (pH 7.0) containing 10% fetal calf serum and 0.1% sodium azide. Homogenized samples were centrifuged and Elisa measured anti OVA antibody in supernatants. Spleens were collected to determine CTL activity using the Cr^51-assay with specific and non-specific targets EG.7 and EL-4, respectively (14). In Elispot assays antigen-specific CD8^+ T cell activity was measured in splenic cells from immunized mice by determining the number of SIINFEKL stimulated IFN-γ-secreting cells per 5×10^5 splenic cells (15)."}, "[2]": {"test_system": "Listeria monocytogenes (LM)-OVA construct", "experiment": "Protection against LM-OVA challenge after vaccination, splenic CFU", "format": "in vivo", "conditions": "glyco-archaeol/DPPG/chol (25/55/20, mol %), FIG. 13", "experimental": "FIG. 13 illustrates protection against LM-OVA challenge after vaccination with OVA-adjuvant combinations. C57BL/6J mice were immunized on day 0 and 21 with 15 ug OVA entrapped in various synthetic archaeosomes composed of the respective synthetic glyco-archaeol/DPPG/chol (25/55/20, mol %). At 8 weeks, mice were challenged with 10^4 intravenous dose of Listeria monocytogenes (LM)-OVA construct. Mice were euthanized 3 days later. Mean±SEM of splenic colony forming units (CFU) is shown for each group."}, "[3]": {"test_system": "antigen-specific CD8+ T cell", "experiment": "Antigen-specific CD8+ T cell activity in blood by tetramer assay", "format": "in vivo, C57BL/6J mice", "conditions": "glyco-archaeol/DPPG/chol (25/55/20, mol %); data not shown", "experimental": "Mice vaccinated with synthetic archaeosomes containing an appropriate antigen were protected from infection (FIG. 13). […] The lower CD8^+ T cell response observed for this latter archaeosome previously appears to be in part due to the shorter period from first injection to assay in FIG. 7C. In this example (FIG. 13), the antigen-specific CD8^+ T cell activity was measured in blood by tetramer assay and found to be about 30% as high in the maltotriose-A group compared to the gentiotriose-A group (data not shown)."}, "[4]": {"conditions": "incorporation of 36 mol % into archaeosomes; Sprott et al (23); cited from earlier work"}, "[5]": {"test_system": "Macrophages J774A.1", "experiment": "Up-regulation of co-stimulatory molecule CD80 on APCs, flow cytometry", "format": "cell-based", "conditions": "25 μg liposomes or archaeosomes 48 h; LPS 10 μg 24 h; anti-CD80-PE", "experimental": "Macrophages J774A.1 were incubated for 48 h with 25 μg of archaeosomes prior to staining and analysis by flow cytometry (Table 13). […] Immuno-activity was clearly ascribed to the synthetic glyco-archaeal lipid."}},
  "data": [
    {"compound": "CC(C)CCC[C@@H](C)CCC[C@@H](C)CCC[C@@H](C)CCOC[C@H](CO[C@@H]1O[C@H](CO)[C@@H](O[C@H]2O[C@H](CO)[C@@H](O[C@H]3O[C@H](CO)[C@@H](O)[C@H](O)[C@H]3O)[C@H](O)[C@H]2O)[C@H](O)[C@H]1O)OCC[C@H](C)CCC[C@H](C)CCC[C@H](C)CCCC(C)C", "note": "[maltotriose-A]", "values": [
      {"measurement": "CTL adjuvant activity, FIG. 3", "setting": "[1]", "value": "best adjuvant activity"},
      {"measurement": "protection from LM-OVA infection", "setting": "[2]", "value": "striking protection"},
      {"measurement": "antigen-specific CD8+ T cell activity in blood, % as high as the gentiotriose-A group", "setting": "[3]", "value": "about 30%"}
    ]},
    {"compound": "CC(C)CCCC(C)CCCC(C)CCCC(C)CCOCC(CO[C@@H]1O[C@H](CO[C@@H]2O[C@H](CO)[C@@H](O)[C@H](O)[C@H]2O)[C@@H](O)[C@H](O)[C@H]1O)OCCC(C)CCCC(C)CCCC(C)CCCC(C)C", "note": "(stereo partly drawn) [DGAs, β-D-Glc-(1,6)-β-D-Glc-archaeol]", "values": [
      {"measurement": "adjuvant activity", "setting": "[4]", "value": "striking decline in adjuvant activity"}
    ]},
    {"compound": "Lipopolysaccharide", "values": [
      {"measurement": "Mean fluorescence Intensity CD80", "setting": "[5]", "value": 33.2}
    ]}
  ]
}
